Experimental data from patent US20190241569A1, “3-(ARYL OR HETEROARYL) METHYLENEINDOLIN-2-ONE DERIVATIVES AS INHIBITORS OF CANCER STEM CELL PATHWAY KINASES FOR THE TREATMENT OF CANCER” (Boston Biomedical, Inc., priority 2013, published 2019).

Tests used:
Assay type in all cases: cell-based
ACHN = test: Bulk cancer cells, Cell Titer-Glo 72 hours (Test Example 2); conditions: Homo sapiens, ACHN, 72 h
Protocol: (§1) Tubes of 3× drug (60 uM in 500 uL complete media) were prepared from 5 mM stock solutions in DMSO. […] To treat cells, 50 uL of drug from the dilution plate was removed and added to the cell plates. […] Cells were harvested 72 hours after drug addition using Cell Titer-Glo (Promega) and luminescence measured on a plate reader.

FaDu = test: as above; conditions: Homo sapiens
Protocol: as §1

FaDu CSC = test: Cancer stem cells, Cell Titer-Glo 72 hours (Test Example 3); conditions: Homo sapiens, FaDu, 72 h
A549 = test: Bulk cancer cells, Cell Titer-Glo 72 hours (Test Example 2); conditions: Homo sapiens
Protocol: as §1

IC50 (ACHN) | IC50 (FaDu) | IC50 (FaDu CSC) | IC50 (A549) | Structure (SMILES)
12.2 µM | 9.73 µM | 41.5 µM |  | CCN(CC)CCNC(=O)c1c(C)[nH]c(/C=C2\C(=O)Nc3ccc(-c4cnc(-c5ccccc5)o4)cc32)c1C [Example 17]
 | 1.89 µM | 1.3 µM | 16 µM | CCN(CC)CCNC(=O)c1c(C)[nH]c(/C=C2\C(=O)Nc3ccc(C4CCN(c5ccccc5)CC4)cc32)c1C [Example 42]
4.8 µM | 3.32 µM | 1 µM | 29.6 µM | CCN(CC)CCNC(=O)c1c(C)[nH]c(/C=C2\C(=O)Nc3ccc(C4CCN(C5CCN(C(C)=O)CC5)CC4)cc32)c1C [Example 45]
4.73 µM | 6.74 µM | 2.9 µM | 4.88 µM | CCN(CC)CCNC(=O)c1c(C)[nH]c(/C=C2\C(=O)Nc3ccc(-c4cn(-c5ccccc5)nn4)cc32)c1C [Example 48]
7.16 µM | 6.58 µM | 3 µM |  | CCN(CC)CCNC(=O)c1c(C)[nH]c(/C=C2\C(=O)Nc3ccc(-n4cc(-c5ccccc5)nn4)cc32)c1C [Example 49]
 | 2.15 µM | 0.23 µM | 48.9 µM | CCN(CC)CCNC(=O)c1c(C)[nH]c(/C=C2\C(=O)Nc3ccc(-c4nnc(-c5ccccc5)s4)cc32)c1C [Example 52]
3.31 µM | 3.1 µM | 6.15 µM | 3.64 µM | CCN(CC)CCNC(=O)c1ccc(/C=C2\C(=O)Nc3ccc(-c4csc(-c5ccccc5)n4)cc32)[nH]c1=O [Example 121]
5.31 µM | 7.87 µM | 6.49 µM |  | Cc1cc(C)c(/C=C2\C(=O)Nc3ccc(-c4csc(-c5ccccc5)n4)cc32)[nH]1 [Example 138]
1.16 µM | 21.8 µM |  | 16.3 µM | COC(=O)c1c(C)[nH]c(/C=C2\C(=O)Nc3ccc(-c4csc(-c5ccccc5)n4)cc32)c1C [Example 141]
24.9 µM |  | 4.49 µM |  | O=C1Nc2ccc(-c3csc(-c4ccccc4)n3)cc2/C1=C/c1[nH]c(C(=O)O)c2c1CCCC2 [Example 163]
 | 25.2 µM |  | 8.73 µM | O=C1Nc2ccc(-c3csc(-c4ccncc4)n3)cc2/C1=C/c1ccc(N2CCNCC2)cc1 [Example 170]
 | 2.59 µM |  | 5.79 µM | O=C1Nc2ccc(-c3csc(-c4ccccc4)n3)cc2/C1=C/c1ccc(N2CCNCC2)cc1 [Example 171]
 | 5.31 µM |  | 18 µM | CCN(CC)CCN1CCCc2[nH]c(/C=C3\C(=O)Nc4ccc(-c5csc(-c6ccccc6)n5)cc43)c(C)c2C1=O [Example 176]
12.8 µM |  |  | 20.8 µM | Cc1cc(C)c(/C=C2\C(=O)Nc3ccc(-c4cncnc4)cc32)[nH]1 [Example 212]
10.6 µM | 25.8 µM | 0.09 µM | 7.89 µM | Cc1cc(C)c(/C=C2\C(=O)Nc3ccc(-c4cnc5ccccc5n4)cc32)[nH]1 [Example 217]
 | 23.5 µM |  | 18.4 µM | Cc1cc(C)c(/C=C2\C(=O)Nc3ccc(-c4nccc5ccccc45)cc32)[nH]1 [Example 219]
 |  |  | 0.07 µM | COc1ccc(-c2ccc3c(c2)/C(=C/c2[nH]c(C)cc2C)C(=O)N3)nc1 [Example 227]
14.7 µM | 26.8 µM |  | 16.1 µM | Cc1cc(C)c(/C=C2\C(=O)Nc3ccc(-c4nc5ccccc5s4)cc32)[nH]1 [Example 235]
20.6 µM | 19.4 µM |  |  | Cc1cc(C)c(/C=C2\C(=O)Nc3cc(-c4cnc5ccccn45)ccc32)[nH]1 [Example 247]
21.8 µM | 22.4 µM |  |  | Cc1cc(C)c(/C=C2\C(=O)Nc3ccc(-c4ccc(C(=O)c5ccccc5)cc4)cc32)[nH]1 [Example 260]
 | 26.8 µM |  | 29.2 µM | Cc1cc(C)c(/C=C2\C(=O)Nc3ccc(-c4ccc(C=O)cc4)cc32)[nH]1 [Example 262]
24.8 µM | 19.8 µM |  |  | COc1ccc(-c2ccc3c(c2)/C(=C/c2[nH]c(C)cc2C)C(=O)N3)c(C)c1 [Example 263]
